Source: patent US20220401589A1, “PRE-TARGETING IMAGING AGENTS” (Eli Lilly and Company, priority 2019, published 2022)

Legend:
[1] = Dynamic PET-CT imaging, tracer uptake in brain, muscle and bone; assay type: in vivo, Male CD-1 mice; conditions: for Bone Mean / Brain Mean / Muscle Mean: 60 minute PET scan
Method: PET-CT imaging of [^18F]—N-(4-(1,2,4,5-tetrazin-3-yl)benzyl)-4-fluorobenzamide
A Siemens Inveon® Multimodality Scanner (Siemens, Germany) is used for micro PET/CT imaging. Male CD-1 (6-week-old, ˜30 g) mice are anesthetized with 3% isoflurane/97% oxygen and placed on the bed of the scanner. The mice are administered [^18F]—N-(4-(1,2,4,5-tetrazin-3-yl)benzyl)-4-fluorobenzamide via a bolus intravenous tail vein injection (˜[…] in a total volume of 200 μL saline). A total of six (four 60 min and two 90 min) dynamic PET scans are conducted, followed by a short high-resolution CT scan for anatomical registration. PET images are generated for each minute of the acquisition time. Uptake of the tracer in the brain, muscle, and bone are determined by visually drawing regions of interest (ROIs) based on the fused PET/CT images and the corresponding activity values are determined using the Inveon® Research Workplace software. All values are represented as % injected dose per gram (% ID/g).
Bone uptake throughout the scan period remained low, consistent with an absence of defluorination for this tracer. Results of the 90 min scans are similar to the 60 min scan results with peak brain uptake observed at 3.4% ID/g at 2.5 min post injection followed by an immediate wash out to 0.6% ID/g by 59.5 min. Residual uptake is also observed throughout the body of the mouse. Time activity curves are generated for [^18F]—N-(4-(1,2,4,5-tetrazin-3-yl)benzyl)-4-fluorobenzamide in CD-1 male mice (n=4). Data is shown in graphical format in FIGS. 1A and 1B and in tabular format below.

[2] = Reduction of tetrazine moiety by ascorbate formulation; assay type: physicochemical
Text: In another aspect the present embodiments provide a pharmaceutical composition comprising Compound 1 or Compound 2, or pharmaceutically acceptable salt thereof, which is formulated in ethanol (such as, for example 10% EtOH (v/v)) and buffer (which may be PBS buffer), preferably for use in humans. […] Thus, although ascorbate formulation is readily used in many formulations for imaging, it may not be suitable for imaging with the compounds of Formula I or Formula II.

Compound: O=C(NCc1ccc(-c2nncnn2)cc1)c1ccc([18F])cc1 [[^18F]—N-(4-(1,2,4,5-tetrazin-3-yl)benzyl)-4-fluorobenzamide]
- Uptake throughout the body ([1]; 60-minute PET scans): observed throughout the body in organs such as the liver, kidneys and heart
- Bone Mean ([1]; time 2.5 min): 1.28 % ID/g
- Brain Mean ([1]; time 2.5 min): 4.06 % ID/g
- Muscle Mean ([1]; time 2.5 min): 1.14 % ID/g
- Bone Mean ([1]; time 3.5 min): 1.09 % ID/g
- Brain Mean ([1]; time 3.5 min): 3.70 % ID/g
- Muscle Mean ([1]; time 3.5 min): 1.13 % ID/g
- Bone Mean ([1]; time 4.5 min): 1.04 % ID/g
- Brain Mean ([1]; time 4.5 min): 3.36 % ID/g
- Muscle Mean ([1]; time 4.5 min): 1.15 % ID/g
- Bone Mean ([1]; time 5.5 min): 1.01 % ID/g
- Brain Mean ([1]; time 5.5 min): 3.20 % ID/g
- Muscle Mean ([1]; time 5.5 min): 1.17 % ID/g
- Bone Mean ([1]; time 6.5 min): 1.07 % ID/g
- Brain Mean ([1]; time 6.5 min): 3.01 % ID/g
- Muscle Mean ([1]; time 6.5 min): 1.10 % ID/g
- Bone Mean ([1]; time 7.5 min): 1.12 % ID/g
- Brain Mean ([1]; time 7.5 min): 2.81 % ID/g
- Muscle Mean ([1]; time 7.5 min): 1.11 % ID/g
- Bone Mean ([1]; time 8.5 min): 1.04 % ID/g
- Brain Mean ([1]; time 8.5 min): 2.62 % ID/g
- Muscle Mean ([1]; time 8.5 min): 1.15 % ID/g
- Bone Mean ([1]; time 9.5 min): 0.97 % ID/g
- Brain Mean ([1]; time 9.5 min): 2.46 % ID/g
- Muscle Mean ([1]; time 9.5 min): 1.09 % ID/g
- Bone Mean ([1]; time 10.5 min): 1.03 % ID/g
- Brain Mean ([1]; time 10.5 min): 2.32 % ID/g
- Muscle Mean ([1]; time 10.5 min): 1.09 % ID/g
- Bone Mean ([1]; time 11.5 min): 1.01 % ID/g
- Brain Mean ([1]; time 11.5 min): 2.17 % ID/g
- Muscle Mean ([1]; time 11.5 min): 1.08 % ID/g
- Bone Mean ([1]; time 12.5 min): 0.93 % ID/g
- Brain Mean ([1]; time 12.5 min): 2.07 % ID/g
- Muscle Mean ([1]; time 12.5 min): 1.06 % ID/g
- Bone Mean ([1]; time 13.5 min): 0.96 % ID/g
- Brain Mean ([1]; time 13.5 min): 1.97 % ID/g
- Muscle Mean ([1]; time 13.5 min): 1.06 % ID/g
- Bone Mean ([1]; time 14.5 min): 0.78 % ID/g
- Brain Mean ([1]; time 14.5 min): 1.88 % ID/g
- Muscle Mean ([1]; time 14.5 min): 1.00 % ID/g
- Bone Mean ([1]; time 15.5 min): 0.89 % ID/g
- Brain Mean ([1]; time 15.5 min): 1.79 % ID/g
- Muscle Mean ([1]; time 15.5 min): 1.02 % ID/g
- Bone Mean ([1]; time 16.5 min): 0.96 % ID/g
- Brain Mean ([1]; time 16.5 min): 1.70 % ID/g
- Muscle Mean ([1]; time 16.5 min): 1.02 % ID/g
- Bone Mean ([1]; time 17.5 min): 0.87 % ID/g
- Brain Mean ([1]; time 17.5 min): 1.64 % ID/g
- Muscle Mean ([1]; time 17.5 min): 1.03 % ID/g
- Bone Mean ([1]; time 18.5 min): 0.92 % ID/g
- Brain Mean ([1]; time 18.5 min): 1.58 % ID/g
- Muscle Mean ([1]; time 18.5 min): 1.05 % ID/g
- Bone Mean ([1]; time 19.5 min): 0.93 % ID/g
- Brain Mean ([1]; time 19.5 min): 1.52 % ID/g
- Muscle Mean ([1]; time 19.5 min): 0.94 % ID/g
- Bone Mean ([1]; time 20.5 min): 1.01 % ID/g
- Brain Mean ([1]; time 20.5 min): 1.47 % ID/g
- Muscle Mean ([1]; time 20.5 min): 0.95 % ID/g
- Bone Mean ([1]; time 21.5 min): 0.88 % ID/g
- Brain Mean ([1]; time 21.5 min): 1.42 % ID/g
- Muscle Mean ([1]; time 21.5 min): 1.06 % ID/g
- Bone Mean ([1]; time 22.5 min): 0.99 % ID/g
- Brain Mean ([1]; time 22.5 min): 1.38 % ID/g
- Muscle Mean ([1]; time 22.5 min): 1.04 % ID/g
- Bone Mean ([1]; time 23.5 min): 0.85 % ID/g
- Brain Mean ([1]; time 23.5 min): 1.33 % ID/g
- Muscle Mean ([1]; time 23.5 min): 0.92 % ID/g
- Bone Mean ([1]; time 24.5 min): 0.88 % ID/g
- Brain Mean ([1]; time 24.5 min): 1.29 % ID/g
- Muscle Mean ([1]; time 24.5 min): 0.96 % ID/g
- Bone Mean ([1]; time 25.5 min): 1.02 % ID/g
- Brain Mean ([1]; time 25.5 min): 1.26 % ID/g
- Muscle Mean ([1]; time 25.5 min): 0.97 % ID/g
- Bone Mean ([1]; time 26.5 min): 0.88 % ID/g
- Brain Mean ([1]; time 26.5 min): 1.23 % ID/g
- Muscle Mean ([1]; time 26.5 min): 0.92 % ID/g
- Bone Mean ([1]; time 27.5 min): 0.83 % ID/g
- Brain Mean ([1]; time 27.5 min): 1.18 % ID/g
- Muscle Mean ([1]; time 27.5 min): 0.89 % ID/g
- Bone Mean ([1]; time 28.5 min): 0.92 % ID/g
- Brain Mean ([1]; time 28.5 min): 1.17 % ID/g
- Muscle Mean ([1]; time 28.5 min): 0.91 % ID/g
- Bone Mean ([1]; time 29.5 min): 0.93 % ID/g
- Brain Mean ([1]; time 29.5 min): 1.14 % ID/g
- Muscle Mean ([1]; time 29.5 min): 0.94 % ID/g
- Bone Mean ([1]; time 30.5 min): 0.92 % ID/g
- Brain Mean ([1]; time 30.5 min): 1.11 % ID/g
- Muscle Mean ([1]; time 30.5 min): 0.93 % ID/g
- Bone Mean ([1]; time 31.5 min): 0.96 % ID/g
- Brain Mean ([1]; time 31.5 min): 1.09 % ID/g
- Muscle Mean ([1]; time 31.5 min): 0.99 % ID/g
- Bone Mean ([1]; time 32.5 min): 0.85 % ID/g
- Brain Mean ([1]; time 32.5 min): 1.07 % ID/g
- Muscle Mean ([1]; time 32.5 min): 0.89 % ID/g
- Bone Mean ([1]; time 33.5 min): 0.95 % ID/g
- Brain Mean ([1]; time 33.5 min): 1.04 % ID/g
- Muscle Mean ([1]; time 33.5 min): 0.93 % ID/g
- Brain Mean ([1]; time 34.5 min): 1.04 % ID/g
- peak brain uptake ([1]; 90 min scans, 2.5 min post injection): 3.4 % ID/g
- brain uptake after wash out ([1]; 90 min scans, by 59.5 min): 0.6 % ID/g
- peak brain uptake ([1]; WT mice, approximately 2.5 min post injection): 4.1±0.3 % ID/g
- brain uptake after steady clearance of tracer ([1]; WT mice, by 60 minutes): 0.8±0.1 % ID/g
- Bone uptake throughout the scan period ([1]; consistent with an absence of defluorination): remained low
- crossing of the blood-brain-barrier ([1]; dynamic PET imaging in mice): readily crosses the blood-brain-barrier
- peak brain uptake ([1]; four 60-minute PET scans, 2.5 min post injection): 4.1 % ID/g
- brain uptake after steady clearance of tracer ([1]; four 60-minute PET scans, at 59.5 min): 0.8 % ID/g
- reduction of the tetrazine moiety [2]: readily reduced

Compound: O=C(NCc1ccc(-c2nncnn2)cc1)c1ccc(F)cc1 [Compound 1, N-(4-(1,2,4,5-tetrazin-3-yl)benzyl)-4-fluorobenzamide]
- reduction of the tetrazine moiety [2]: readily reduced
